From ChEMBL document CHEMBL2074532, “P-glycoprotein increases the efflux of the androgen dihydrotestosterone and reduces androgen responsive gene activity in prostate tumor cells” (Prostate, 2004)

Molecular target: ATP-dependent translocase ABCB1 (Homo sapiens, UniProt P08183)
Assay: TP_TRANSPORTER: cell accumulation in P-gp transfected LNCaP cells
Type: functional, cell-based

Chain of ATP-dependent translocase ABCB1 (P08183 whole entry): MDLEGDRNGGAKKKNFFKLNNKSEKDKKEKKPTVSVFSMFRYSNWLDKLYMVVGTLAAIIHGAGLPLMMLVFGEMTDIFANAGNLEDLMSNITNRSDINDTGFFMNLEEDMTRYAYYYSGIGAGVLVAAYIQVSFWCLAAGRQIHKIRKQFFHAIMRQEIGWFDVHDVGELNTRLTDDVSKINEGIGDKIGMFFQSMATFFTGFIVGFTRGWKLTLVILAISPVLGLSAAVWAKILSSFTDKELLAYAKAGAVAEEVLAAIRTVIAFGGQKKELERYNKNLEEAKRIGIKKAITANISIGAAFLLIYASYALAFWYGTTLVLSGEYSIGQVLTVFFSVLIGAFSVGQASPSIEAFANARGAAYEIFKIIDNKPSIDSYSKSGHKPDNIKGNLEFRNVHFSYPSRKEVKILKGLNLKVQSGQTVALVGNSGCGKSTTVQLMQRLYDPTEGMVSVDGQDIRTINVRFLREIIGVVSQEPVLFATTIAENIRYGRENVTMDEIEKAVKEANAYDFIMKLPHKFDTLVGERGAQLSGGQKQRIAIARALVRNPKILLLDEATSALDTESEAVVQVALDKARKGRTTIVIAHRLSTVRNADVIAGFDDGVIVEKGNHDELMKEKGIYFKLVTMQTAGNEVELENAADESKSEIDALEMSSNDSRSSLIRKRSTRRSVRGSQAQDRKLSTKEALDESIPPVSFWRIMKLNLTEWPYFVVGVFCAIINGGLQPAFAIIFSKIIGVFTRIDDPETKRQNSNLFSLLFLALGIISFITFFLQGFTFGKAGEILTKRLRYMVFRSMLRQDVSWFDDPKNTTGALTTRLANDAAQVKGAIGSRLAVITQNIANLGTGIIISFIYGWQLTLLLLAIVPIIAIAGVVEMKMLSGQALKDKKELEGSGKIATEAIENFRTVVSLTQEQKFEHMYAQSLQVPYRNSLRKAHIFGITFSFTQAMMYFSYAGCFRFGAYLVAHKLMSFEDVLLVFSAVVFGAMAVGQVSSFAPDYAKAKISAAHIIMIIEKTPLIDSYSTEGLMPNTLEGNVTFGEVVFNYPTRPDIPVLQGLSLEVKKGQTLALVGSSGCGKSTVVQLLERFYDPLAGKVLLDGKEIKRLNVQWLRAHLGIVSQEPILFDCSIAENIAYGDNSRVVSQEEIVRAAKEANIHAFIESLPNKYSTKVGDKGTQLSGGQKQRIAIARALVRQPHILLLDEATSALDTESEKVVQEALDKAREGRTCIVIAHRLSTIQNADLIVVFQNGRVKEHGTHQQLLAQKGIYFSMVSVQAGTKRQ

Row | Structure (SMILES) | Activity
1 | CC[C@]1(O)C[C@@H]2CN(CCc3c([nH]c4ccccc34)[C@@](C(=O)OC)(c3cc4c(cc3OC)N(C)[C@H]3[C@@](O)(C(=O)OC)[C@H](OC(C)=O)[C@]5(CC)C=CCN6CC[C@]43[C@@H]65)C2)C1 [VINBLASTINE] | substrate [+]
2 | C[C@]12CCC(=O)C[C@@H]1CC[C@@H]1[C@@H]2CC[C@]2(C)[C@@H](O)CC[C@@H]12 [STANOLONE] | substrate [+]
